According to US20250170080A1, “COMPOSITIONS COMPRISING BUTYRIC ACID AND GLUCONIC ACID FOR THE TREATMENT OF DISORDERS AND SYNDROMES ASSOCIATED WITH INTESTINAL BARRIER DYSFUNCTIONS AND DYSBIOSIS” (DIFASS INTERNATIONAL S.P.A., priority 2022, published 2025):

Columns and labels:
IL-6 = IL-6 release (ELISA) in reconstructed 3D human intestinal epithelium stressed with LPS+TNF-alpha; conditions: for effect on release of IL-6 (in words): LPS+TNF-alpha stressed tissue, vs positive control, t-test; for IL-6 Anti-inflammatory activity: compared with CTR+ (LPS+TNF-alpha), * = p<0.05 vs positive control; for IL-6 Anti-inflammatory activity / IL-6 % var. vs CTR −: reference dose; for IL-6 % var. vs CTR −: variation vs untreated tissues (CTR−), LPS+TNF-alpha stressed
Method: (§1) Assays of pro-inflammatory cytokines TNF-alpha and IL-6 were evaluated. The biological model used in the assay is a model of human intestinal epithelium reconstructed in vitro in 3D, consisting of intestinal epithelial and endothelial cells and fibroblasts of human origin. The highly differentiated tissue model is produced at the air-liquid interface in easily manageable culture tissue inserts using a serum-free medium. […] The cells used to produce the tissue model were screened for potential biological contaminants, using specific tests and analyses to guarantee the functionality and quality of the tissues.
(§2) The intestinal epithelium tissues reconstructed in vitro were exposed for 24 hours to the stressor lipopolysaccharide of bacterial origin (LPS) in combination with cytokine TNF-alpha, and simultaneously treated for a further 24 hours with each experimental condition examined. After the 48-hour experimental session, the culture media were harvested to assay pro-inflammatory cytokines TNF-alpha and IL-6.
(§3) Each ingredient and the mixture selected for the treatments were diluted in H2O, taking account of the average intestinal volume of 80 ml. In particular, the following reference doses were used: • calcium butyrate 500 mg; • gluconic acid 29.87 mg; • gluconic acid+calcium butyrate=29.87 mg+500 mg.
(§4) 50 μl of each sample was tested in the tissue model, simulating the following experimental conditions: • reference dose; The experimental protocol involved: • untreated tissues (CTR−); • tissues exposed to pro-inflammatory agents LPS+TNF-alpha (CTR+); • tissues exposed to pro-inflammatory agents LPS+TNF-alpha and treated with butyrate (calcium butyrate); • tissues exposed to pro-inflammatory agents LPS+TNF-alpha and treated with gluconic acid; • tissues exposed to pro-inflammatory agents LPS+TNF-alpha and treated with gluconic acid+butyrate (calcium butyrate) mixture; • Each test was conducted in duplicate. To monitor the ability of the tested ingredients to inhibit the inflammatory response in vitro in a system wherein an inflammatory condition has been induced, the production of pro-inflammatory cytokine TNF-alpha and interleukin 6 (IL-6) was evaluated. At the end of the treatments the culture media were harvested for the TNF-alpha and IL-6 assay using an ELISA kit. The data obtained were subjected to statistical analysis and compared using the t-test. The variations compared with the positive control are deemed significant for p<0.05 and indicated by “*”.
(§5) The results are expressed as mean values ±standard deviation (expressed in pg/ml), as % variation compared with CTR− and as anti-inflammatory activity compared with CTR+.

TNF-alpha = TNF-alpha release (ELISA) in reconstructed 3D human intestinal epithelium stressed with LPS+TNF-alpha; conditions: for effect on release of TNF-alpha (in words): LPS+TNF-alpha stressed tissue, vs positive control, t-test; for TNF-alpha Anti-inflammatory activity: compared with CTR+ (LPS+TNF-alpha), * = p<0.05 vs positive control; for TNF-alpha Anti-inflammatory activity / TNF-alpha % var. vs CTR −: reference dose; for TNF-alpha % var. vs CTR −: variation vs untreated tissues (CTR−), LPS+TNF-alpha stressed
Method: as §1, §2, §3, §4, §5

[1] = oral intake; avoids digestion and absorption in the small intestine; cited from earlier work

SMILES | effect on release of IL-6 (in words) (IL-6) | IL-6 Anti-inflammatory activity (IL-6) [%*] | IL-6 % var. vs CTR − (IL-6) [%] | effect on release of TNF-alpha (in words) (TNF-alpha) | TNF-alpha Anti-inflammatory activity (TNF-alpha) [%*] | TNF-alpha % var. vs CTR − (TNF-alpha) [%] | gluconic acid introduced with the diet or diet supplements that reaches the large intestine [1]
CCCC(=O)O [Butyrate, calcium butyrate] | significantly reduce release of the pro-inflammatory cytokine | 23.8 | 61.5 | significantly reduce the release of the pro-inflammatory cytokine | 28.8 | 40.5 | 
O=C(O)[C@H](O)[C@@H](O)[C@H](O)[C@H](O)CO [Gluconic acid, gluconic acid] | significantly reduce release of the pro-inflammatory cytokine | 24.3 | 60.5 | significantly reduce the release of the pro-inflammatory cytokine | 30.3 | 37.6 | over 70%
